This note sets out measurements from patent US5218126A, “Halogen substituted mitomycin derivatives” (Kyowa Hakko Kogyo Co., Ltd., priority 1990, dated 1993).

One data set deals with Sarcoma 180 solid tumor. In words: Anti-tumor Activity to Sarcoma 180 Solid Tumor. The data set is classed as in vivo. Particulars: Mus musculus, iv, 168 h; male ddY mice, s.c. Sarcoma 180, single i.v. injection 24 hours after implantation, tumor volume at 7 days; read-out: ED50 (dose showing T/C=0.5). As to the method:
Anti-tumor Activity to Sarcoma 180 Solid Tumor
5×10^6 Sarcoma 180 cells were abdominally implanted into a ddY mouse and the cells were collected from the ascites of the mouse 7 days after the implantation. The cells were washed once with a sterilized physiological saline solution and then suspended in a sterilized physiological saline solution to prepare a cell suspension of 5×10^7 cells/ml. 0.1 ml of the cell suspension was subcutaneously implanted into the right axiallary space of male ddY mice weighting 20±2 g.
A test compound was dissolved in a physiological saline solution or a Tween 80-containing physiological saline solution, and 0.1 to 0.2 ml of the solution was intravenously injected to five mice as one group 24 hours after the implatation of the tumor cells.
The anti-tumor activity of the test compound was determined by measuring the major diameter (a) and the minor diameter (b) of the tumor 7 days after the implantation of tumor cells, and the value of (a×b^2 /2), which corresponds to the volume of the tumor, was calculated. The intended anti-tumor activity is represented by a ratio of T/C, in which C indicates the tumor volume of mice of the control group to which no test compound was administered and T indicates the tumor volume of mice of the test group to which the test compound was administered. T/C at each dose given was plotted in a graph in which T/C is shown by an ordinary scale on the vertical axis and a dose is shown by a logarithmic scale on the horizontal axis. The relation between the dose and T/C was determined to be a straight line by the least-squares method. From the regression formula of the straight line thus obtained, the dose of showing T/C=0.5 is calculated to give ED50.

In the next data set the test system is HeLa S3 cells. In words: Growth Inhibition Test on HeLa S3 Cells. Type of data set: cell-based. Particulars: Homo sapiens, 1 hour exposure, then 72 hours incubation at 37° C., Neutral Red staining, read-out: IC50 (concentration which inhibits cell growth by 50%). As to the method: Growth Inhibition Test on HeLa S3 Cells
HeLa S3 cells were suspended in an MEM medium containing 10% fetal calf serum and 2 mM glutamine at a concentration of 3×10^4 cells/ml, and 0.1 ml of the cell suspension was put into each well of a 96-well microtiter plate.
After culturing at 37° C. overnight in a carbon dioxide gas incubator, 0.05 ml of a test sample appropriately diluted with the medium was added to each well. The cells were further cultured for one hour in the carbon dioxide gas incubator and the culture supernatant was removed. The residue was washed once with a phosphate buffer saline [PBS(-)] and 0.1 ml of a fresh medium was added to each well, and the cells were further incubated at 37° C. for 72 hours in the carbon dioxide gas incubator. After removal of the supernatant, 0.1 ml of culture medium containing 0.02% Neutral Red was added to each well, and the cells were further incubated at 37° C. for one hour in the carbon dioxide gas incubator to stain the cells. After removal of the culture supernatant, each well was washed once with a physiological saline, and the dye was extracted with 0.001N HCl/30% methanol. Absorbance of the extract at 550 nm was measured with a microplate reader. The cell growth inhibition percentage was calculated according to the following formula from the absorbance of the extract of the cells treated with the test compound in various concentrations and that of intact cells. [formula]
From the cell growth inhibition percentage thus obtained, the concentration of the test compound which inhibits cell growth by 50% (IC50) was determined.

A short description of another data set: Acute Toxicity. The note with it: mouse, in vivo, iv; ddY mice, single i.v. injection, 14 days observation, Behrens Kaerber's method. As to the method: A test compound was intravenously injected once to five ddY mice as one group. […] LD50 was calculated from the death rate of each group according to the Behrens Kaerber's method.

Usually LD50 stands for the dose expected to kill half of the subjects tested. Higher therefore signals lower toxicity.

Regarding `COC1=CC(=O)C2=C(C1=O)[C@@H](COC(N)=O)[C@@]1(OC)[C@@H]3[C@H](CN21)N3C` (stereo partly shown) [Compound 5, 6-demethylmitomycin F], the ED50 with Sarcoma 180 solid tumor came out at 7.1 mg/kg. For the same compound, in the data set with HeLa S3 cells, the IC50 is 0.13 µM. Also, the LD50 at 336 h in the data set “Acute Toxicity” was found to be 26 mg/kg.

For `COC1=CC(=O)C2=C(C1=O)[C@@H](COC(N)=O)[C@@]1(OC)[C@H]3N[C@H]3CN21` [Compound 1, 6-demethylmitomycin A], in the data set with Sarcoma 180 solid tumor, the ED50 is 1.6 mg/kg. Moreover, in the data set with HeLa S3 cells, the IC50 is 0.21 µM. Moreover, the LD50 at 336 h in “Acute Toxicity” stood at 2.8 mg/kg.

For the compound `CO[C@@]12[C@H](COC(N)=O)C3=C(C(=O)C(Br)=C(N)C3=O)N1C[C@@H]1N[C@@H]12` [Compound 8, 6-bromo-6-demethylmitomycin C], the ED50 in the data set on Sarcoma 180 solid tumor was 1.6 mg/kg. For the same compound, the IC50 with HeLa S3 cells turned out to be 0.72 µM. The compound further came in with an LD50 at 336 h in the data set “Acute Toxicity” of 3.2 mg/kg.

As for `CN1[C@H]2[C@@H]1CN1C3=C(C(=O)C(N)=CC3=O)[C@H](COC(N)=O)[C@@]21O` (stereo partly shown) [Compound 4, 6-demethylmitomycin D], the ED50 in the data set with Sarcoma 180 solid tumor turned out to be 33 mg/kg. The IC50 in the data set on HeLa S3 cells is more than 31 µM. In the data set “Acute Toxicity”, this compound registered an LD50 at 336 h of more than 100 mg/kg.

Regarding `CO[C@@]12[C@H](COC(N)=O)C3=C(C(=O)C(Cl)=C(N)C3=O)N1C[C@@H]1N[C@@H]12` [Compound 7, 6-chloro-6-demethylmitomycin C], the IC50 in the data set with HeLa S3 cells came out at 0.55 µM.

Turning to `CO[C@@]12[C@H](COC(N)=O)C3=C(C(=O)C=C(N)C3=O)N1C[C@@H]1N[C@@H]12` [Compound 3, 6-demethylmitomycin C], the ED50 in the data set with Sarcoma 180 solid tumor stood at 2.6 mg/kg. For the same compound, the IC50 in the data set on HeLa S3 cells came out at 2.2 µM. Moreover, in the data set “Acute Toxicity”, the LD50 at 336 h was found to be 9.7 mg/kg.

In the case of `CO[C@@]12[C@H](COC(N)=O)C3=C(C(=O)C=C(N)C3=O)N1C[C@H]1[C@@H]2N1C` (stereo partly shown) [Compound 6, 6-demethylporfiromycin], the ED50 with Sarcoma 180 solid tumor turned out to be 8.4 mg/kg. Besides, the IC50 in the data set with HeLa S3 cells was found to be 7.3 µM. This compound also showed a 50% lethal dose (LD50) at 336 h in the data set “Acute Toxicity” of 18 mg/kg.

In the case of `COC1=CC(=O)C2=C(C1=O)[C@H](COC(N)=O)[C@@]1(O)[C@@H]3[C@H](CN21)N3C` (stereo partly shown) [Compound 2, 6-demethylmitomycin B], the ED50 in the data set with Sarcoma 180 solid tumor was 11 mg/kg. For the same compound, the IC50 in the data set with HeLa S3 cells is more than 10 µM. Besides, the median lethal dose (LD50) at 336 h in the data set “Acute Toxicity” was more than 20 mg/kg.
